# In publication PMC5682218 (European journal of medicinal chemistry, 2017):
# Where a name gives a salt, the structure may show the parent alone. Read-outs that look alike come from different tables or passages of the source.
# Experiments:
# [1] = target: HIV RT-associated RNase H (Human immunodeficiency virus type 1 group M subtype B, UniProt P03366); experiment: RNH assay: HIV RT-associated RNase H inhibition, HTS-1 RNA/DNA substrate; assay type: biochemical, HIV-1
# [2] = target: HIV RT polymerase (pol) (Human immunodeficiency virus type 1 group M subtype B, UniProt P03366); experiment: RT polymerase assay; assay type: biochemical, HIV-1
# [3] = tested on: P4R5 cells; experiment: Cytotoxicity in cell-based MAGI assay; details: human
# [4] = target: HIV integrase (Human immunodeficiency virus type 1 group M subtype B, UniProt P03366); experiment: HIV IN assay; assay type: biochemical
# [5] = tested on: HIV-1; experiment: MAGI antiviral assay in P4R5 indicator cells; assay type: cell-based; details: Human immunodeficiency virus 1, read-out: MAGI Antiviral EC50
# [6] = Cytotoxicity in cell-based MAGI assay; details: human, P4R5 indicator cells (MAGI assay)
# [7] = read-out: RT IC50 Pol, concentration inhibiting the target enzyme by 50%
# [8] = concentration inhibiting the target enzyme by 50%
Compound,IC50 [1] [µM],IC50 [2] [µM],further results
"O=c1[nH]c2scc(-c3ccccc3)c2c(=O)n1O [Compound 11c, 3-Hydroxy-5-phenylthieno[2,3-d]pyrimidine-2,4(1H,3H)-dione]",0.1 ± 0.03,> 10,–
"3-Hydroxy-5,6,7,8-tetrahydrobenzo[4, 5]thieno[2,3-d]pyrimidine-2,4(1H,3H)-dione [Compound 11j]",–,–,"IC50 [2, 7]: > 10 µM; CC50 [3]: > 100 µM"
"O=c1[nH]c2sc3c(c2c(=O)n1O)CCN(Cc1ccccc1)C3 [Compound 11m, 7-Benzyl-3-hydroxy-5,6,7,8-tetrahydropyrido[4′,3′:4,5]thieno[2,3-d]pyrimidine-2,4(1H,3H)-dione hydrochloride]",0.1 ± 0.04,> 10,IC50 [4]: 8.3 ± 0.8 µM; EC50 [5]: > 20 µM; CC50 at 72 h [6]: > 100 µM
"O=c1[nH]c2sc(Cc3ccccc3)cc2c(=O)n1O [Compound 11b, 6-Benzyl-3-hydroxythieno[2,3-d]pyrimidine-2,4(1H,3H)-dione]",–,> 10,–
"O=c1[nH]c2sccc2c(=O)n1O [Compound 11e, 3-Hydroxythieno[2,3-d]pyrimidine-2,4(1H,3H)-dione]",–,> 10,–
"Cc1c(C(=O)O)sc2[nH]c(=O)n(O)c(=O)c12 [Compound 11h, 3-Hydroxy-5-methyl-2,4-dioxo-1,2,3,4-tetrahydrothieno[2,3-d]pyrimidine-6-carboxylic acid]",0.1 ± 0.02,> 10,–
"O=c1[nH]c2cc(-c3ccccc3)sc2c(=O)n1O [Compound 10a, 3-Hydroxy-6-phenylthieno [3,2-d]pyrimidine-2,4(1H,3H)-dione]",0.1 ± 0.06,> 10,"RT IC50 Pol [2, 8]: no RT pol inhibition"
"O=c1[nH]c2sc3c(c2c(=O)n1O)CCNC3 [Compound 11l, 3-Hydroxy-5,6,7,8-tetrahydropyrido[4′,3′:4,5]thieno[2,3-d]pyrimidine-2,4(1H,3H)-dione hydrobromide]",0.3 ± 0.03,> 10,IC50 [4]: 17 ± 3 µM; EC50 [5]: > 20 µM; CC50 at 72 h [6]: > 100 µM
"O=c1[nH]c2cc(-c3ccc(Cl)cc3)sc2c(=O)n1O [Compound 10c, 6-(4-Chlorophenyl)-3-hydroxythieno[3,2-d]pyrimidine-2,4(1H,3H)-dione]",–,> 10,–
"Cc1sc2[nH]c(=O)n(O)c(=O)c2c1C [Compound 11g, 3-Hydroxy-5,6-dimethylthieno[2,3-d]pyrimidine-2,4(1H,3H)-dione]",0.1 ± 0.03,> 10,–
"O=c1[nH]c2cc(-c3ccc(Cl)cc3)ccc2c(=O)n1O [Compound 9b, 7-(4-Chlorophenyl)-3-hydroxyquinazoline-2,4(1H,3H)-dione]",–,> 10,–
"CCN1CCc2c(sc3[nH]c(=O)n(O)c(=O)c23)C1 [Compound 11k, 7-Ethyl-3-hydroxy-5,6,7,8-tetrahydropyrido[4′,3′:4,5]thieno[2,3-d]pyrimidine-2,4(1H,3H)-dione hydrochloride]",0.2 ± 0.03,> 10,IC50 [4]: > 100 µM; EC50 [5]: > 20 µM; CC50 at 72 h [6]: > 100 µM
"Cc1csc2[nH]c(=O)n(O)c(=O)c12 [Compound 11f, 3-Hydroxy-5-methylthieno[2,3-d]pyrimidine-2,4(1H,3H)-dione]",0.1 ± 0.02,> 10,–
"O=c1[nH]c2scc(-c3ccc(Cl)cc3)c2c(=O)n1O [Compound 11d, 5-(4-Chlorophenyl)-3-hydroxythieno[2,3-d]pyrimidine-2,4(1H,3H)-dione]",–,> 10,"RT IC50 Pol [2, 8]: did not inhibit RT polymerase"
"O=c1[nH]c2cc(-c3ccccc3)ccc2c(=O)n1O [Compound 9a, 3-Hydroxy-7-phenylquinazoline-2,4(1H,3H)-dione]",–,> 10,fold increase in RNase H inhibition ([1]; vs. compound 14): 6.5 fold; fold decrease in INST inhibition ([4]; vs. compound 14): 5.5 fold
"3-Hydroxy-1,5,6,7-tetrahydro-2H-cyclopenta[4, 5]thieno[2,3-d]pyrimidine-2,4(3H)-dione [Compound 11i]",–,–,"IC50 [2, 7]: > 10 µM; CC50 [3]: > 100 µM"
"O=c1[nH]c2cc(-c3ccc(F)cc3)sc2c(=O)n1O [Compound 10b, 6-(4-Fluorophenyl)-3-hydroxythieno[3,2-d]pyrimidine-2,4(1H,3H)-dione]",–,> 10,–
"O=c1[nH]c2sc(-c3ccccc3)cc2c(=O)n1O [Compound 11a, 3-Hydroxy-6-phenylthieno[2,3-d]pyrimidine-2,4(1H,3H)-dione]",–,> 10,–
"O=C1Cc2cc(-c3ccccc3)ccc2C(=O)N1O [Compound 14, 2-Hydroxy-6-phenylisoquinoline-1,3(2H,4H)-dione]",–,> 10,"RT IC50 Pol [2, 8]: without inhibiting RT pol"
